Results on 5 compounds are retold here after US10191062B2, “Model gut system” (priority 2013, dated 2019).

For data set [1] the following is noted: fatty acid released from the triglyceride substrate; cited from earlier work.
The subject of the next data set is lipase. The experiment in a line: Glyceryl trioctanoate digestion in the model gut system (MGS), glycerol release. Format: biochemical, porcine. Particulars: 2 mmol glyceryl trioctanoate; Orlistat at 2.5, 5 and 10 mg vs control digestion; FIG. 6.

Description for lipase: Fresh porcine bile was extracted from fresh procine gall bladders (collected on ice from abattoir). Approximately 50 gall bladders were collected per batch. The collected bile was pooled, mixed and frozen down in 25 ml aliquots for storage, as 25 ml is required for each replicate.
Glyceryl trioctanoate was used as the tryglyceride substrate for all assays of fat digestion reported herein. In these experiments, 2 mmol (0.94136 g) of glyceryl trioctanoate was added to the synthetic saliva preparations at T[−10] wherein T[−10] means 10 minutes prior to addition of the synthetic saliva to the test system.
At T[−10], salivary preparations containing substrate/sample/controls were prepared as indicated hereinbefore and incubated for 10 minutes on rollers. […]
In all the experiments, data samples of 0.5 ml were taken at T0, T5, T10, T15, T30, T45, T60, T60^B, T65, T70, T75, T90, T105, T120, T150 and T180, wherein (T60^B) represents a second sample at T60 which was taken after the addition of fresh porcine bile. […] The test samples were stored at 4° C. overnight to allow for precipitation and then centrifuged at 10,000 r.p.m. for 10 minutes, after which the supernatant was analysed. […]
Triglyceride digestion can be measured using ZenBio Glycerol Reagent A to quantify the release of glycerol. A 5 μl of sample was incubated with 80 μl Reagent A for 30 minutes and colour development was measured at 550 nm. […]

Regarding `CCCC(=O)O` [Butyric Acid], in data set [1], the pKa was 4.84.

In the case of `CCCCCCCC/C=C\CCCCCCCC(=O)O` [Oleic Acid], the pKa in data set [1] is 9.95.

As to `CCCCCCCCCCC[C@@H](C[C@@H]1OC(=O)[C@H]1CCCCCC)OC(=O)[C@H](CC(C)C)NC=O` [Orlistat], the “total glycerol recovered from the model gut system after TCA precipitation” value with lipase was “varies in accordance with the level of Orlistat”.

For `CCCCCCCCCCCCCCCC(=O)O` [Palmitic Acid], in data set [1], the pKa is 9.7.

Regarding `CCCCCCCCCCCCCCCCCC(=O)O` [Stearic Acid], the pKa in data set [1] is recorded as 10.15.
